Reference: patent US8404696B2, “Quinazoline-2,4-dione derivative, and medical compositions for the prophylaxis and treatment of cranial nerve disease containing the same” (Shin Poong Pharmaceutical Co., Ltd., priority 2008, dated 2013)

What was measured:
[1] = test system: mixed culture of nerve cells-glial cells; assay: Protecting effect on NMDA-induced nerve cell death (LDH release); type: cell-based, ICR mouse; settings: 100 μM NMDA, LDH release after 24 hours
Procedure, shortened: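 Embryonic day-14 ICR mouse cortical neurons seeded on cortical glia, Ara-C-treated, then exposed at day 12–15 for 20 min to 100 μM NMDA with compound at 1 or 2 μg/mL. LDH released 24 h later measured colorimetrically as a cell-death index.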

[2] = test system: pentylentetrazole (PTZ)-induced convulsion; assay: Anti-convulsant effect, pentylentetrazole (PTZ) test; type: in vivo; settings: 10 mg/kg intraperitoneally, PTZ 80 mg/kg subcutaneously
Procedure, shortened: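 Compound was given intraperitoneally at 10 mg/kg before PTZ challenge. The read-outs were time to convulsion onset, time until convulsions fully disappeared, and mortality.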

CC(=O)N(CCCCNCCCn1c(=O)[nH]c2ccccc2c1=O)CCCn1c(=O)[nH]c2ccccc2c1=O [Compound 3, N-[3-(2,4-dioxo-1,4-dihydro-2H-quinazolin-3-yl)propyl]-N-{4-[3-(2,4-dioxo-1,4-dihydro-2H-quinazolin-3-yl)propylamino]butyl}acetamide]
Inhibitory effect of cell death by NMDA-induced excitable neurotoxicity ([1]; 1 μg/ml compound): 45.5% | Inhibitory effect of cell death by NMDA-induced excitable neurotoxicity ([1]; 2 μg/ml compound): 54.4% | mortality rate ([2]; (animals/total), negative control 70(17/23)): 17(2/12) % | Induction percentage of convulsion ([2]; (animals/total), negative control 100(23/23)): 50(6/12) % | Initiation time of convulsion ([2]; negative control 5.0 ± 0.7): 34.7 ± 7.7 min | Duration of convulsion ([2]; negative control 46.7 ± 3.3): 11.8 ± 5.6 min
